From ChEMBL document CHEMBL5634071, “Fluorine in anti-HIV drugs approved by FDA from 1981 to 2023” (Eur J Med Chem, 2023)

What was measured:
[1] = Inhibition of HIV integrase strand transfer activity; parameters: species or system Human immunodeficiency virus
[2] = Binding affinity to HIV protease assessed as inhibition constant; parameters: species or system Human immunodeficiency virus
[3] = system: Human immunodeficiency virus 1; experiment: Antiviral activity against HIV-1 IIIB infected in human H9 cells; format: functional, organism-based; conditions: Human immunodeficiency virus 1, IIIB
[4] = system: Human immunodeficiency virus; experiment: Antiviral activity against HIV; format: functional, organism-based; conditions: Human immunodeficiency virus 1
[5] = system: Human immunodeficiency virus 1; experiment: Antiviral activity against HIV-1 infected in lymphoblastoid cell (unknown origin); conditions: Human immunodeficiency virus 1, Lymphoblastoid cell
[6] = Cytotoxicity against lymphoblastoid cell (unknown origin); conditions: lymphoblastoid cells
[7] = system: Human immunodeficiency virus 1; experiment: Antiviral activity against HIV-1 infected in human HeLa-MAGI-CCR5 cells; conditions: Human immunodeficiency virus 1, HeLa-MAGI-CCR5
[8] = Oral bioavailability in mouse; conditions: in vivo
[9] = Oral bioavailability in cynomolgus monkey; conditions: in vivo
[10] = Cytotoxicity against human CEM cells measured after 6 days; conditions: CEM cells (CCRF-CEM)
[11] = system: Human immunodeficiency virus 1; experiment: Antiviral activity against HIV-1 LAV infected in human CEM cells; format: functional, organism-based; conditions: Human immunodeficiency virus 1, LAV, CCRF-CEM
[12] = Oral bioavailability in rat; conditions: in vivo
[13] = Cytotoxicity against human HeLa-MAGI-CCR5 cells
[14] = system: Human immunodeficiency virus 1; experiment: Antiviral activity against HIV-1 infected in PBMC (unknown origin); conditions: Human immunodeficiency virus 1, PBMC
[15] = Cytotoxicity against PBMC (unknown origin)
[16] = system: Human immunodeficiency virus 1; experiment: Antiviral activity against HIV-1 infected in human MT4 cells assessed as reduction in virus induced cytopathic effect; format: functional, organism-based; conditions: Human immunodeficiency virus 1, MT4
[17] = target: Human immunodeficiency virus type 1 protease (Human immunodeficiency virus 1, UniProt Q72874); experiment: Inhibition of HIV-1 protease expressed in Escherichia coli incubated for 90 mins by fluorescence based analysis
[18] = target: Human immunodeficiency virus type 1 Gag protein (Human immunodeficiency virus 1, UniProt Q77YG1); experiment: Binding affinity to HIV1 Gag assessed as dissociation constant
[19] = Cytotoxicity against HEK293T cells incubated for 72 hrs by MTT assay; format: toxicity, cell-based, HEK-293T; conditions: human
[20] = system: Human immunodeficiency virus 1; experiment: Antiviral activity against VSV-G pseudotyped HIV-1 infected in HEK293T cells assessed as inhibition of early stage viral replication preincubated with cells for 30 mins followed by viral infection for 3 hrs and measured 48 hrs after media replacement with compound by luciferase assay; format: functional, organism-based; conditions: Human immunodeficiency virus 1, HEK-293T
[21] = Metabolic stability in rhesus monkey hepatocytes assessed as half-life; format: ADME, cell-based, Macaca mulatta, Hepatocyte
[22] = system: Human immunodeficiency virus 1; experiment: Antiviral activity against HIV-1 infected in human PBMC; format: functional, organism-based; conditions: Human immunodeficiency virus 1, PBMC
[23] = system: Human immunodeficiency virus 1; experiment: Antiviral activity HIV-1 infected in HEK293T cells assessed as inhibition of late stage viral replication; format: functional, organism-based; conditions: Human immunodeficiency virus 1, HEK-293T
[24] = system: Human immunodeficiency virus 1; experiment: Antiviral activity against HIV-1 KELL infected in human CEM-SS cells assessed as reduction in virus-induced cytopathic effect by XTT assay; format: functional, organism-based; conditions: Human immunodeficiency virus 1, KELL
[25] = system: Human immunodeficiency virus 1; experiment: Antiviral activity against HIV-1 SK-1 infected in human CEM-SS cells assessed as reduction in virus-induced cytopathic effect by XTT assay; format: functional, organism-based; conditions: Human immunodeficiency virus 1, SK-1, CEM-SS
[26] = system: Human immunodeficiency virus 1; experiment: Antiviral activity against HIV-1 PM16 infected in human CEM-SS cells assessed as reduction in virus-induced cytopathic effect by XTT assay; format: functional, organism-based; conditions: Human immunodeficiency virus 1, PM16, CEM-SS
[27] = system: Human immunodeficiency virus 1; experiment: Antiviral activity against HIV-1 LAV infected in human CEM-SS cells assessed as reduction in virus-induced cytopathic effect by XTT assay; format: functional, organism-based; conditions: Human immunodeficiency virus 1, LAV
[28] = system: Human immunodeficiency virus 1; experiment: Antiviral activity against HIV-1 TP-1 infected in human CEM-SS cells assessed as reduction in virus-induced cytopathic effect by XTT assay; format: functional, organism-based; conditions: Human immunodeficiency virus 1, TP-1, CEM-SS
[29] = system: Human immunodeficiency virus 1; experiment: Antiviral activity against HIV-1 G infected in human CEM-SS cells assessed as reduction in virus-induced cytopathic effect by XTT assay; format: functional, organism-based; conditions: Human immunodeficiency virus 1, G
[30] = system: Human immunodeficiency virus 1; experiment: Antiviral activity against HIV-1 214 infected in human CEM-SS cells assessed as reduction in virus-induced cytopathic effect by XTT assay; format: functional, organism-based; conditions: Human immunodeficiency virus 1, 214, CEM-SS
[31] = system: Human immunodeficiency virus 1; experiment: Antiviral activity against HIV-1 205 infected in human CEM-SS cells assessed as reduction in virus-induced cytopathic effect by XTT assay; format: functional, organism-based; conditions: Human immunodeficiency virus 1, 205, CEM-SS
[32] = Inhibition of HIV-1 integrase by multiple well plate integration assay; parameters: species or system Human immunodeficiency virus
[33] = system: Human immunodeficiency virus 1; experiment: Antiviral activity against HIV-1 IIIB infected in human MT4 cells incubated for 7 days by ELISA; format: functional, organism-based; conditions: Human immunodeficiency virus 1, IIIB, MT4, 168 h

O=C(NCc1c(F)cc(F)cc1F)c1cn2c(c(O)c1=O)C(=O)N1[C@H]3CC[C@H](C3)O[C@@H]1C2 [BICTEGRAVIR]
IC50 [1]: 2.4 nM

CCC[C@@]1(CCc2ccccc2)CC(O)=C([C@H](CC)c2cccc(NS(=O)(=O)c3ccc(C(F)(F)F)cn3)c2)C(=O)O1
Ki [2]: 8 nM | IC50 [3]: 30 nM | IC90 [3]: 100 nM | IC50 [4]: 30 nM

Nc1nc(=O)n([C@@H]2CS[C@H](CO)O2)cc1F [EMTRICITABINE]
IC50 [5]: 1 nM | CC50 [6]: > 200000 nM | IC50 [7]: 1 nM | bioavailability [8]: ~58% | bioavailability [9]: ~58% | CC50 at 144 h [10]: > 100000 nM | IC50 [11]: 9 nM | bioavailability [12]: ~58% | CC50 [13]: > 200000 nM | IC50 [14]: 1 nM | CC50 [15]: > 200000 nM

Cc1c(Sc2ccccc2)n(COCCO)c(=O)[nH]c1=O [HEPT]
IC50 [16]: 7000 nM

CCCC(CCc1ccccc1)c1cc(O)c(C(CC)c2ccccc2)c(=O)o1 (centres undefined)
Ki [17]: 35 nM

CC(C)(C#Cc1ccc(-c2ccc(Cl)c3c(NS(C)(=O)=O)nn(CC(F)(F)F)c23)c([C@H](Cc2cc(F)cc(F)c2)NC(=O)Cn2nc(C(F)(F)F)c3c2C(F)(F)[C@@H]2C[C@H]32)n1)S(C)(=O)=O
Kd [18]: 1.1 nM | CC50 at 72 h [19]: > 50000 nM | IC50 [20]: 0.055 nM | half-life [21]: 202 h | IC50 [22]: 0.05 nM | IC50 [23]: 0.314 nM

O=S1(c2ccccc2)=NC(=S)Nc2ccccc21 (centres undefined)
IC50 [24]: 950 nM | IC50 [25]: 950 nM | IC50 [26]: 950 nM | IC50 [27]: 950 nM | IC50 [28]: 950 nM | IC50 [29]: 950 nM | IC50 [30]: 950 nM | IC50 [31]: 950 nM

O=C(O)/C(O)=C/C(=O)C1C=Nc2ccc(Cl)cc21 (centres undefined)
IC50 [32]: 2300 nM

CCC(Cc1ccccc1)c1cc(O)c(C(CC)c2ccccc2)c(=O)o1 (centres undefined)
IC50 [33]: 3000 nM
